This is an account of results in PubChem BioAssay AID1361 (SRMLSC, 2008).

SMILES strings stand for the structures. The source made the active and inactive calls. How the calls were made is not given here.

The assay can be described thus: blockers of mitochondrial fusion, WT vs mutant – cell-based, chemical genetic, wild-type and mutant, confirmation (AID 1361). As to conditions: Cell-based mitochondrial fusion phenotype, imaging.
Setting [1] is: mutant cells, measured here: mutant cell line IC50.

On to `CC1(C(=O)OCC(=O)c2c[nH]c3ccccc23)CC1(Cl)Cl` (centres undefined), for which the IC50 (as a rule, the point on the concentration scale where inhibition reaches its midpoint) was 5.84 µM (WT cells) and 9.97 µM under setting [1].
The corresponding values for `CN(C)c1ncc(S(=O)(=O)c2ccc(Cl)cc2)c(-c2ccc(Cl)cc2Cl)n1` are 9.56 µM and 15.3 µM.
For `Fc1ccc(-c2csc3ncnc(N4CCc5ccccc5C4)c23)cc1`, the IC50 by setting is: (WT cells) 9.26 µM; under setting [1], more than 25 µM.
In the case of `Oc1ccccc1CN(Cc1ccco1)CC(O)COCc1ccc(Cl)cc1` (centres undefined), the IC50 by setting is: (WT cells) 19.1 µM; under setting [1], more than 25 µM.
On the same counts, the results for `COc1ccc(Cc2nn[nH]n2)cc1` are > 25 µM (inactive) and more than 25 µM.
On the same counts, the results for `O=C(/C(=N\O)n1cncn1)c1ccc(Br)cc1Br` are > 25 µM (inactive) and more than 25 µM.
The corresponding values for `N#CC1=C(N)NC(SCC(=O)c2ccc(Br)cc2)=C(C#N)C12CCCCC2` are 19.4 µM and more than 25 µM.
`Cc1ccc(NNC(=S)Nc2ccc(C(C)C)cc2)c(C)c1`: the IC50 is, setting by setting: (WT cells) 15.3 µM; under setting [1], more than 25 µM.
On the same counts, the results for `COc1ccc(OC)c(C(=O)c2coc3ccc(OC)cc23)c1` are > 25 µM (inactive) and more than 25 µM.
For the compound `CSc1nncn1/N=C/c1ccc2c(c1)OCO2`, the IC50 (WT cells) was > 25 µM (inactive) and the IC50 under setting [1] was more than 25 µM.
For `COC(=O)c1cn(N(C)c2ncc(C(F)(F)F)cc2Cl)c(=O)c2ccccc12`, the IC50 is, setting by setting: (WT cells) 15.8 µM (inactive); under setting [1], 15.5 µM.
On the same counts, the results for `N#Cc1c(-c2cccnc2)c2c([nH]c1=S)CCCC2` are > 25 µM (inactive) and more than 25 µM.
On the same counts, the results for `CCc1nnc(NC(=O)c2ccc(S(=O)(=O)N(CC(C)C)CC(C)C)cc2)o1` are 22.5 µM and more than 25 µM.
The corresponding values for `Clc1ccc(CSc2nnc(-c3ccncc3)o2)c(Cl)c1` are > 25 µM (inactive) and more than 25 µM.
As to `COc1cc(Nc2nc(-c3ccccc3)c3cc(C)ccc3n2)cc(OC)c1OC`, the IC50 reads like this: (WT cells) 10.6 µM; under setting [1], more than 25 µM.
The corresponding values for `CCOc1ccc(NCc2nnc(SCc3ccc(Cl)cc3)n2-c2ccccc2)cc1` are > 25 µM (inactive) and more than 25 µM.
On the same counts, the results for `S=c1[nH]nc(-c2cc3ccccc3o2)n1Cc1ccccc1` are 12.5 µM and 23.1 µM.
Regarding `CCN1C(=O)S/C(=C/c2c(OCc3ccc(C(=O)O)cc3)ccc3ccccc23)C1=O`, the IC50 by setting is: (WT cells) 18.7 µM; under setting [1], more than 25 µM.
The corresponding values for `CCOc1cccc(-c2nn(-c3ccccc3)cc2/C=C(/C#N)C(=O)NCCCn2ccnc2)c1` are > 25 µM (inactive) and more than 25 µM.
`COc1ccc(NC(=O)CSc2ccc3c(c2)OCCO3)cc1OC`: the IC50 reads like this: (WT cells) > 25 µM (inactive); under setting [1], more than 25 µM.
`COc1ccc(CNC(=O)[C@H](C)[C@@H]2C[C@@]2(C)[C@@H](NC(=O)OCc2ccccc2)c2ccccc2)cc1OC`: the IC50 (WT cells) was 22.6 µM and the IC50 under setting [1] was more than 25 µM.
As for `Cc1nc2ccc(NC(=O)c3nn(CC(C)C)c(=O)c4ccccc34)cc2s1`, the IC50 by setting is: (WT cells) > 25 µM (inactive); under setting [1], more than 25 µM.
`CCCOP(=O)(OCCC)C(Nc1ccc(C(C)C)cc1)c1ccc([N+](=O)[O-])cc1` (centres undefined): the IC50 (WT cells) is 13.1 µM and the IC50 under setting [1] was more than 25 µM.
Consider `CCc1cc(-c2n[nH]c(=S)n2-c2ccccc2C)cs1`, for which the IC50 by setting is: (WT cells) > 25 µM (inactive); under setting [1], more than 25 µM.
With `Cc1ccc(C(C(=O)NC2CCCCC2)N(Cc2ccco2)C(=O)Cc2c[nH]c3ccccc23)o1` (centres undefined), the IC50 is, setting by setting: (WT cells) 21.2 µM; under setting [1], more than 25 µM.
As to `Cc1ccc(C(C)C)cc1OCC(=O)N/N=C/c1ccc2c(c1)OCCO2`, the IC50 is, setting by setting: (WT cells) 18.3 µM; under setting [1], more than 25 µM.
On the same counts, the results for `CCC(C)(C)c1ccc(Oc2ccc(N)cc2)cc1` are > 25 µM (inactive) and more than 25 µM.
The corresponding values for `COc1cc2[nH]c(=O)n(CCC(=O)N3CCN(c4cccc(C)c4C)CC3)c(=O)c2cc1OC` are > 25 µM (inactive) and more than 25 µM.
The corresponding values for `CCC1CCCCN1c1cc(C)nc2cc(-c3cccc(C)c3)nn12` (centres undefined) are 13.1 µM and more than 25 µM.
`CCOC(=O)N1CCN(CC(O)COC2CC(C)CCC2C(C)C)CC1` (centres undefined): the IC50 is, setting by setting: (WT cells) > 25 µM (inactive); under setting [1], more than 25 µM.
The corresponding values for `Cc1ccc(C(C)C)c(OCCNC(=S)Nc2cccc3ccccc23)c1` are 6.51 µM and more than 25 µM.
On the same counts, the results for `COC(=O)CNC(c1ccccc1)c1cc(C)ccc1NC(=O)c1cccc(Cl)c1` (centres undefined) are 9.38 µM and more than 25 µM.
On the same counts, the results for `Cc1ccc(-c2nn(-c3ccccc3)cc2CSC(=N)N)cc1` are > 25 µM (inactive) and more than 25 µM.
Consider `CC(C)Cc1nc(N2CCN(C(=O)c3ccccc3)CC2)c(C#N)c2c1CCC2`, for which the IC50 (WT cells) is 16.3 µM and the IC50 under setting [1] was more than 25 µM.
On the same counts, the results for `O=c1c2c3c(sc2nc(NCCO)n1CCc1ccccc1)CCCCC3` are 22.3 µM and more than 25 µM.
As for `Cc1cccc(NC(=S)N=Nc2c(O)[nH]c3ccccc23)c1`, the IC50 reads like this: (WT cells) > 25 µM (inactive); under setting [1], more than 25 µM.
The corresponding values for `COc1ccccc1C1(CCNS(=O)(=O)c2ccc(C)cc2)CCOC(C(C)C)C1` (centres undefined) are 21 µM and more than 25 µM.
On the same counts, the results for `O=C(C1=C[C@@H](c2csc3ccccc23)C[C@@H](OCc2ccc(CO)cc2)O1)N1CCN(Cc2ccccc2)CC1` are 5.83 µM and more than 25 µM.
Take `Cc1cc(C)cc(NS(=O)(=O)c2ccc(Oc3ncc(C(F)(F)F)cc3Cl)cc2)c1`: the IC50 (WT cells) was 10.9 µM and the 50% inhibitory concentration (IC50) under setting [1] is more than 25 µM.
On to `CCOc1ccc(S(=O)(=O)N2CCN(C(=O)c3cc4c(s3)CCCC4)CC2)cc1`, for which the IC50 is, setting by setting: (WT cells) 4.98 µM; under setting [1], more than 25 µM.
As to `CCOc1ccc(NC(=O)CSc2nnc(-c3ccco3)n2C)cc1`, the IC50 is > 25 µM (inactive) (WT cells) and more than 25 µM under setting [1].
The corresponding values for `CCCCCC(=O)O[C@]1(C(C)=O)CC[C@H]2[C@@H]3CCC4=CC(=O)CC[C@]4(C)[C@H]3CC[C@@]21C` are 12.7 µM and more than 25 µM.
Consider `O=C(/C=C/Nc1cccc(C(F)(F)F)c1)C(F)(F)F`, for which the IC50 is, setting by setting: (WT cells) > 25 µM (inactive); under setting [1], more than 25 µM.
As to `CCCCC(=O)O[C@H]1CC[C@H]2[C@@H]3CCc4cc(O)ccc4[C@H]3CC[C@]12C`, the IC50 is 12.3 µM (WT cells) and more than 25 µM under setting [1].
For `CC12CC3(C)CC(C)(C1)CC(C(=O)NC(=S)NC(C)(C)C)(C2)C3`, the IC50 by setting is: (WT cells) 11.6 µM; under setting [1], more than 25 µM.
Regarding `O=C(O)CCc1ccc(-c2ccc(F)cc2)n1Cc1ccco1`, the IC50 reads like this: (WT cells) > 25 µM (inactive); under setting [1], more than 25 µM.
The corresponding values for `CCOC(=O)C1=NN(c2cccc(C)c2)C2(S1)SC(C(C)=O)=C(C)N2c1ccccc1` (centres undefined) are 8.2 µM and more than 25 µM.
The corresponding values for `CCc1ccc(OCC2c3cc(OC)c(OC)cc3CCN2C(=S)NC)cc1` (centres undefined) are > 25 µM (inactive) and more than 25 µM.
On the same counts, the results for `CC(c1ccccc1)N(CC(=O)NC1CCCCC1)S(=O)(=O)c1cccc(C(F)(F)F)c1` (centres undefined) are 12.4 µM and more than 25 µM.
Turning to `CCCCOC(=O)Nc1cccc(C(=O)OCC)c1`, the IC50 was > 25 µM (inactive) (WT cells) and more than 25 µM under setting [1].
On the same counts, the results for `CC(C)N(C(=S)NC1CCCCC1)c1ccccc1` are > 25 µM (inactive) and more than 25 µM.
`c1ccc2c(c1)[nH]c1c(N3CCCC3)ncnc12`: the IC50 is > 25 µM (inactive) (WT cells) and more than 25 µM under setting [1].
As for `COc1ccc(OC)c(-c2cc(C3CCN(c4cc(Cl)nc(N)n4)CC3)[nH]n2)c1`, the IC50 reads like this: (WT cells) > 25 µM (inactive); under setting [1], more than 25 µM.
Take `O=C(NC(=S)Nc1ccccc1N1CCCCC1)c1ccccc1`: the IC50 (WT cells) was 24.9 µM (inactive) and the IC50 under setting [1] is more than 25 µM.
On the same counts, the results for `Cc1ccc(C(C)C)c(OCc2ccc(C(=O)N/N=C/c3ccc(O)cc3O)cc2)c1` are > 25 µM (inactive) and more than 25 µM.
As to `CCCCNC(=S)N(C)/N=C/c1ccc2c(c1)OCO2`, the IC50 is, setting by setting: (WT cells) 25 µM (inactive); under setting [1], more than 25 µM.
On the same counts, the results for `CC(C)(C)[C@H]1C=C(C(=O)N2CCN(Cc3ccccc3)CC2)O[C@@H](OCc2ccc(CO)cc2)C1` are 21.7 µM and more than 25 µM.
The corresponding values for `Cc1ccc(-n2cc(CNCCc3cscn3)c(-c3ccc(F)cc3)n2)cc1` are > 25 µM (inactive) and more than 25 µM.
On to `CC(C)C(=O)Nc1ccc(C(=O)NNC(=O)CCCOc2ccc(Cl)cc2Cl)cc1`, for which the IC50 is, setting by setting: (WT cells) > 25 µM (inactive); under setting [1], more than 25 µM.
As to `O=C(Nn1c(-c2ccccc2)nc2ccccc2c1=O)C1CCC1`, the IC50 runs as follows: (WT cells) > 25 µM (inactive); under setting [1], more than 25 µM.
As for `O=C(CCc1ccccc1)Nc1nnc(-c2ccc3c(c2)CCCC3)o1`, the IC50 reads like this: (WT cells) 8.76 µM; under setting [1], more than 25 µM.
Consider `CCCC1(CCC)NC(=O)N(CC(=O)Nc2cccc(OC)c2)C1=O`, for which the IC50 runs as follows: (WT cells) > 25 µM (inactive); under setting [1], more than 25 µM.
On the same counts, the results for `COc1ccc(NC(=O)N2c3ccccc3CC2C)cc1OC` (centres undefined) are > 25 µM (inactive) and more than 25 µM.
As for `Cc1ccc(Cn2ncc3c(N4CCN(c5ccccc5C)CC4)ncnc32)cc1`, the IC50 is 7.78 µM (WT cells) and 24.7 µM under setting [1].
On the same counts, the results for `CCOC(=O)C1=C(NC(=S)NC(=O)c2ccccc2)c2ccccc2CC12CCCC2` are 6.33 µM and more than 25 µM.
For `Cc1ccc(C)c(C(=O)COC(=O)c2cc([N+](=O)[O-])ccc2NCCO)c1`, the IC50 reads like this: (WT cells) 25 µM (inactive); under setting [1], more than 12.5 µM.
On the same counts, the results for `CC(NC(c1ccccc1)c1ccccc1)C(=O)N1CCCc2ccccc21` (centres undefined) are 19.9 µM (inactive) and more than 12.5 µM.
